Results: USRE35321E, “Tetrazoleacetic acid derivatives having aldose reductase inhibitory activity” (Wakamoto Pharmaceutical Co., Ltd., priority 1990, dated 1996)

How the values were obtained:
aldose reductase = molecular target: T1, aldose reductase (Rattus norvegicus, UniProt P07943); test: Aldose reductase inhibitory effect (enzyme from crystalline lenses, DL-glyceraldehyde substrate); type: biochemical, rat (male SD); conditions: 10 mM DL-glyceraldehyde, pH 6.2, 30° C.
T1 construct: Then their crystalline lenses were immediately removed and stored at -80° C; The lenses were homogenized; from tissue; host or cells: crystalline lenses of six-week-old male SD rats
Procedure: Six-weeks-old male SD rates were anesthetized with ether and killed. Then their crystalline lenses were immediately removed and stored at -80° C. […] All operations were conducted at 4° C. and the enzyme solution was stored at -80° C.
More specifically, 0.1 ml of DL glyceraldehyde (final concentration: 10 mM) was added to 0.9 ml of 100 mM sodium potassium phosphate buffer (pH 6.2) which contained lithium sulfate (final concentration: 400 mM), reduced nicotinamide adenine dinucleotide phosphate (final concentration: 0.15 mM), the enzyme solution, and the compound to be evaluated (final concentration: 10^-6 M, 10^-7 M or […]), and then the reaction was conducted at 30° C. for 5 minutes. During the reaction, the change in the absorbance at 340 nm with time was monitored. The maximum reducing rate of the absorbance (U) during the reaction was determined. By subtracting, from this value, the maximum reducing rate (Uo) at 340 nm of the reaction solution before the addition of the substrate (DL-glyceraldehyde), the reaction rate (V=U-Uo) was calculated as a true reaction rate in the presence of the compound to be tested.
The same procedure was repeated except for the absence of the compound to be tested. A true reaction rate (Vo) in case the enzyme was not inhibited was calculated (Vo =U'-Uo '). The aldose reductase inhibitory activity of the test compounds was determined according to the following formula:
Rate of Inhibition (%)=(Vo -V)/Vo ×100

[1] = tested on: accumulation of sorbitol in sciatic nerve; test: Inhibiting the accumulation of sorbitol in sciatic nerve of streptozotocin diabetic rats; type: in vivo, Sprague-Dawley male rats; conditions: twice a day for 5 days
Procedure: Groups of 6 to 8-weeks-old Sprague-Dawley male rats (4 aminals per group) were fasted for 18 hours and streptozotocin was injected through the tail vein in a dose of 60 mg/kg to thus obtain diabetic rats. Immediately after the administration of the streptozotocin, each compound to be tested was orally administered to these rats in the form of a suspension at a dose of 10 mg/kg, 30 mg/kg and 50 mg/kg (each was suspended in a 0.5% sodium carboxymethyl cellulose solution) twice a day (9 o'clock in the morning and 5 o'clock in the afternoon) for 5 days. During the test, the rats took diet and drank water freely. 4 Hours after the final administration of the drug in the 5th day's morning (9 o'clock in the morning), the rats were sacrificed and then the sciatic nerve thereof was removed to determine the amount of sorbitol accumulated therein.
The results are expressed in the percentage obtained while the value obtained on the control to which any drug was not administered is defined to be 100.

IC50 (aldose reductase)	Structure (SMILES)	further results
24 nM	Cc1csc(-c2nnnn2CC(=O)O)c1 [Example 2-3, [5-(4-methyl-2-thienyl)tetrazol-1-yl] acetic acid]	–
23 nM	O=C(O)Cn1nnnc1-c1sccc1NS(=O)(=O)c1ccccc1 [Example 2-41, [5-(3-phenylsulfonylamino-2-thienyl)tetrazol-1-yl] acetic acid]	–
520 nM	CS(=O)(=O)c1sccc1-c1nnnn1CC(=O)O [Example 2-44, [5-(2-methylsulfonyl-3-thienyl)tetrazol-1-yl] acetic acid]	–
230 nM	COC(=O)Cn1nnnc1-c1sccc1NS(=O)(=O)c1ccccc1 [Example 1-27, methyl [5-(3-phenylsulfonylamino-2-thienyl)tetrazol-1-yl acetate]	–
10 nM	Cc1sccc1-c1nnnn1CC(=O)O [Example 2-12, [5-(2-methyl-3-thienyl)tetrazol-1-yl] acetic acid]	–
580 nM	CCOC(=O)Cn1nnnc1-c1ccsc1 [Example 3-2, ethyl [5-(3-thienyl)tetrazol-1-yl] acetate]	–
23 nM	CCCCc1ccc(-c2nnnn2CC(=O)O)s1 [Example 2-20, [5-(5-butyl-2-thienyl)tetrazol-1-yl] acetic acid]	–
30 nM	O=C(O)Cn1nnnc1-c1ccoc1 [Example 2-7, [5-(3-furyl)tetrazol-1-yl] acetic acid]	Rate of Inhibition of Sorbitol Accumulation ([1]; 10 mg/kg oral): 46%; Rate of Inhibition of Sorbitol Accumulation ([1]; 30 mg/kg oral): 77%
–	CC(/C=C1\SC(=S)N(CC(=O)O)C1=O)=C\c1ccccc1 [ONO-2235, (E)-3-carboxymethyl-5-[(2E)-methyl-3-phenylpropenylidene] rhodan, reference compound]	Rate of Inhibition of Sorbitol Accumulation ([1]; 10 mg/kg oral): 0%; Rate of Inhibition of Sorbitol Accumulation ([1]; 30 mg/kg oral): 0%; Rate of Inhibition of Sorbitol Accumulation ([1]; 50 mg/kg oral): 40%
20 nM	CSc1ccc(-c2nnnn2CC(=O)O)s1 [Example 2-10]	–
20 nM	O=C(O)Cn1nnnc1-c1sccc1O [Example 2-42, [5-(3-hydroxy-2-thienyl)tetrazol-1-yl] acetic acid]	–
18 nM	Cc1ccsc1-c1nnnn1CC(=O)O [Example 2-2, [5-(3-methyl-2-thienyl)tetrazol-1-yl] acetic acid]	Rate of Inhibition of Sorbitol Accumulation ([1]; 10 mg/kg oral): 62%; Rate of Inhibition of Sorbitol Accumulation ([1]; 30 mg/kg oral): 93%
25 nM	O=C(O)Cn1nnnc1-c1ccc(CBr)s1 [Example 2-13, [5-(5-bromomethyl-2-thienyl)tetrazol-1-yl] acetic acid]	–
26 nM	O=C(O)Cn1nnnc1-c1ccc(Sc2ccccc2)s1 [Example 2-34, [5-(5-phenylthio-2-thienyl)tetrazol-1-yl] acetic acid]	–
390 nM	CCN(CC)S(=O)(=O)c1ccc(-c2nnnn2CC(=O)O)s1 [Example 2-35, [5-[5-(N,N-diethylaminosulfonyl)-2-thienyl]tetrazol-1-yl] acetic acid]	–
19 nM	O=C(O)Cn1nnnc1-c1ccc(Br)s1 [Example 2-11, [5-(5-bromo-1-thienyl)tetrazol-1-yl] acetic acid]	–
380 nM	COC(=O)Cn1nnnc1-c1ccsc1SC [Example 3-11, methyl [5-(2-methylthio-3-thienyl)tetrazol-1-yl] acetate]	–
24 nM	O=C(O)Cn1nnnc1-c1sccc1NC(=O)CCc1ccccc1 [Example 2-19, [5-(3-phenethylcarbonylamino-2-thienyl)tetrazol-1-yl] acetic acid]	–
24 nM	O=C(O)Cn1nnnc1-c1ccsc1Sc1ccccc1 [Example 2-33, [5-(2-phenylthio-3-thienyl)tetrazol-1-yl] acetic acid]	–
16 nM	CCCCS(=O)(=O)Nc1ccsc1-c1nnnn1CC(=O)O [Example 2-40, [5-(3-butylsulfonylamino-2-thienyl)tetrazol-1-yl] acetic acid]	–
230 nM	O=C(O)Cn1nnnc1-c1ccc(S(=O)(=O)N2CCCCC2)s1 [Example 2-37, [5-(5-piperidinosulfonyl2-thienyl)tetrazol-1-yl] acetic acid]	–
460 nM	CCN(CC)S(=O)(=O)c1sccc1-c1nnnn1CC(=O)O [Example 2-38, [5-[2-(N,N-diethylaminosulfonyl)-3-thienyl)tetrazol-1-yl] acetic acid]	–
21 nM	CCc1ccc(-c2nnnn2CC(=O)O)s1 [Example 2-8, [5-(5-ethyl-2-thienyl)tetrazol-1-yl] acetic acid]	–

IC50 (aldose reductase)	Structure (SMILES)	further results
31 nM	COCc1ccc(-c2nnnn2CC(=O)O)s1 [Example 2-22, [5-(5-methoxymethyl-2-thienyl)tetrazol-1-yl] acetic acid]	–
20 nM	CCCC(=O)Nc1ccsc1-c1nnnn1CC(=O)O [Example 2-18, [5-(3-propylcarbonylamino-2-thienyl)tetrazol-1-yl] acetic acid]	–
28 nM	CS(=O)(=O)Nc1ccsc1-c1nnnn1CC(=O)O [Example 2-39, [5-(3-methylsulfonylamino-2-thienyl)tetrazol-1-yl] acetic acid]	–
28 nM	O=C(O)Cn1nnnc1-c1ccc(CCCc2ccccc2)s1 [Example 2-21, [5-(5-phenylpropyl-2-thienyl)tetrazol-1-yl] acetate acid]	–
85 nM	O=C(O)Cn1nnnc1-c1ccoc1Br [Example 2-31, [5-(2-bromo-3-furyl)tetrazol-1-yl] scetic acid]	–
85 nM	CCCCN(CCCC)S(=O)(=O)c1ccc(-c2nnnn2CC(=O)O)s1 [Example 2-36]	–
60 nM	O=C(O)Cn1nnnc1-c1ccco1 [Example 2-6, [5-(2-furyl)tetrazol-1-yl] acetic acid]	–
23 nM	Cc1ccc(-c2nnnn2CC(=O)O)s1 [Example 2-4, [5-(5-methyl-2-thienyl)tetrazol-1-yl] acetic acid]	–
20 nM	O=C(O)Cn1nnnc1-c1ccc(Cc2ccccc2)s1 [Example 2-9, [5-(5-benzyl-2-thienyl)tetrazol-1-yl] acetic acid]	–
130 nM	CCCCc1ccc(-c2nnnn2CC(=O)O)o1 [Example 2-28, [5-(5-butyl-2-furyl)tetrazol1-yl-] acetic acid]	–
110 nM	CSc1ccc(-c2nnnn2CC(=O)O)o1 [Example 2-30, [5-(5-methylthio-2-furyl)tetrazol-1-yl] acetic acid]	–
35 nM	CSc1occc1-c1nnnn1CC(=O)O [Example 2-32, [5-(2-methylthio-3-furyl)tetrazol-1-yl] acetic acid]	–
31 nM	CSc1sccc1-c1nnnn1CC(=O)O [Example 2-26, [5-(2-methylthio-3-thienyl)tetrazol-1-yl] acetic acid]	–
28 nM	CC(=O)Nc1ccsc1-c1nnnn1CC(=O)O [Example 2-17]	–
740 nM	COC(=O)Cn1nnnc1-c1ccoc1 [Example 1-7, methyl (5-(3-furyl)tetrazol-1-yl] acetate]	–
29 nM	COc1ccsc1-c1nnnn1CC(=O)O [Example 2-15, [5-(3-methoxy-2-thienyl)tetrazol-1-yl] acetic acid]	–
960 nM	COC(=O)Cn1nnnc1-c1ccsc1 [Example 1-5, methyl [5-(3-thienyl)tetrazol-1-yl] acetate]	–
180 nM	CCCCc1ccc(-c2nnnn2CC(=O)OC)s1 [Example 3-5, methyl [5-(5-butyl-2-thienyl)tetrazol-1-yl] acetate]	–
300 nM	C[S+]([O-])c1sccc1-c1nnnn1CC(=O)O (stereo not drawn) [Example 2-43, [5-(2-methylsulfinyl-3-thienyl)tetrazol-1-yl] acetic acid]	–
38 nM	O=C(O)Cn1nnnc1-c1ccsc1Br [Example 2-24, [5-(2-bromo-3-thienyl)tetrazol-1-yl] acetic acid]	–
21 nM	O=C(O)Cn1nnnc1-c1ccc(-c2ccccc2)s1 [Example 2-14, [5-(5-phenyl-2-thienyl)tetrazol-1-yl] acetic acid]	–
150 nM	Cc1ccc(-c2nnnn2CC(=O)O)o1 [Example 2-27, [5-(5-methyl-2-furyl)tetrazol-1-yl] acetic acid]	–
160 nM	O=C(O)Cn1nnnc1-c1ccc(Br)o1 [Example 2-29, [5-(5-bromo-2-furyl)tetrazol-1-yl] acetic acid]	–

Structure (SMILES)	IC50 (aldose reductase)	further results
CCCCOCc1ccc(-c2nnnn2CC(=O)O)s1 [Example 2-23, [5-(5-butoxymethyl-2-thienyl)tetrazol-1-yl] acetic acid]	25 nM	–
CCCCOc1ccsc1-c1nnnn1CC(=O)O [Example 2-16, [5-(3-butoxy-2-thienyl)tetrazol-1-yl] acetic acid]	31 nM	–
